{
  "source": "patent US4321386A",
  "about": "“Quaternary piperidinium halides” (Mead Johnson & Company, priority 1981, dated 1982)",
  "key": {"[1]": {"system": "Ventricular arrhythmia produced in mice by chloroform inhalation", "assay": "Chloroform induced arrhythmia test in the mouse", "format": "in vivo", "conditions": "inhaled or nasal, 10 animals per dose, read-out: Antiarrhythmic Activity Mouse ED50", "text": "^(2) Ventricular arrhythmia produced in mice by chloroform inhalation\n10 animals per dose (Lawson, J. W., J. Pharmacol. Exp. Therap., 160, 22"}, "[2]": {"assay": "Oral toxicity testing in mice (ALD50, ATD50)", "conditions": "mouse, in vivo", "procedure": "^(1) Various oral doses of from 5 mg/kg to 2000 mg/kg are given to 2\nmice each; ALD50 is the approximate lethal dose for half the animals\nATD50 is the approximate lowest dose where signs of physiologic or […]"}, "[3]": {"conditions": "mice, oral, approximate lethal dose for half the animals, read-out: Toxicity ALD50"}, "[4]": {"conditions": "mice, oral, approximate lowest dose where signs of physiologic or neurologic deficit appear, read-out: Toxicity ATD50"}},
  "note": "Read-outs that look alike come from different tables or passages of the source.",
  "data": [
    {"smiles": "COc1ccc(C(=O)Nc2ccccc2CCC2CCCC[N+]2(C)Cc2ccccc2)cc1", "note": "(stereo not drawn) [IIb, 2-[2--[2-[(4-Methoxybenzoyl)amino]phenyl]ethyl]-1-methyl-1-(phenylmethyl)piperidinium Bromide Hydrate]", "values": [
      {"measurement": "ED50", "setting": "[1]", "result": 19, "unit": "mg/kg"},
      {"measurement": "LD50", "setting": "[2]; po", "result": "> 1000", "unit": "mg/kg"},
      {"measurement": "TD50", "setting": "[2]; po", "result": "125 to 250", "unit": "mg/kg"}
    ]},
    {"smiles": "COc1ccc(C(=O)Nc2ccccc2CCC2CCCCN2C)cc1", "note": "(stereo not drawn) [I, reference compound]", "values": [
      {"measurement": "ED50", "setting": "[1]", "result": "7 to 15", "unit": "mg/kg"},
      {"measurement": "LD50", "setting": "[2]; [3]", "result": "50 to 100", "unit": "mg/kg"},
      {"measurement": "TD50", "setting": "[2]; [4]", "result": "5 to 10", "unit": "mg/kg"}
    ]},
    {"smiles": "COc1ccc(C(=O)Nc2ccccc2CCC2CCCC[N+]2(C)C)cc1.[I-]", "note": "(stereo not drawn) [IIa, 2-[2-[2-[(4-Methoxybenzoyl)amino]phenyl]ethyl]-1,1-dimethylpiperidinium Iodide]", "values": [
      {"measurement": "ED50", "setting": "[1]", "result": 30.5, "unit": "mg/kg"},
      {"measurement": "LD50", "setting": "[2]; [3]", "result": "> 2000", "unit": "mg/kg"},
      {"measurement": "TD50", "setting": "[2]; [4]", "result": 250, "unit": "mg/kg"}
    ]}
  ]
}
